Assay results published in patent US8530461B2 (Boehringer Ingelheim International GmbH, priority 2011, dated 2013).

Molecular target: T1, human ACC2 (Homo sapiens, UniProt O00763)
T1 construct: made in house; host or cells: insect cells (baculoviral expression system)
Assay: ACC2 assay, spectrophotometric 384 well assay (NADH-linked, coupled lactate dehydrogenase/pyruvate kinase)
Format: biochemical
Settings: ACC2 assay; human ACC2 construct lacking 128 N-terminal amino acids; 25° C., 340 nm, 15 minutes; read-out: IC50
Description: Spectrophotometric 384 Well Assay
Malonyl CoA formation by acetyl CoA carboxylases is stoichometrically linked to the consumption of ATP. ACC2 activity is measured in a NADH-linked kinetic method measuring ADP generated during the ACC reaction using a coupled lactate dehydrogenase/pyruvate kinase reaction.
For biological testing, a human ACC2 construct which lacks the 128 amino acids at the N-terminus for increased solubility (nt 385-6966 in Genbank entry AJ575592) is cloned. The protein is then expressed in insect cells using a baculoviral expression system. Protein purification is performed by anion exchange.
All compounds are dissolved in dimethyl sulfoxide (DMSO) to a concentration of 10 mM.
Assay reactions are then carried out in 384-well plates, with hACC2 in an appropriate dilution and at final assay concentrations (f.c.) of 100 mM Tris (pH 7.5), 10 mM trisodium citrate, 25 mM KHCO3, 10 mM MgCl2, 0.5 mg/ml BSA, 3.75 mM reduced L-glutathione, 15 U/ml lactate dehydrogenase, 0.5 mM phosphoenolpyruvate, 15 U/ml pyruvate kinase, compounds at different concentrations at final DMSO concentrations of 1%.
The enzymatic reaction is then started by addition of a mixture of NADH, acetyl Coenzyme A (both […].) and ATP (500 uM f.c.). The decrease of the optical density (slope S) is then determined at 25° C. at a wavelength of 340 nm over 15 minutes in a spectrophotometric reader.
Each assay microtiter plate contains wells with vehicle instead of compound as controls for the non-inhibited enzyme (100% CTL; ‘HIGH’) and wells without acetyl-CoA as controls for non-specific NADH degradation (0% CTL; ‘LOW’).
The slope S is used for calculation of % CTL=(S(compound)−S(‘LOW’))/(S(‘HIGH’)−S(‘LOW’))100. Compounds will give values between 100% CTL (no inhibition) and 0% CTL (complete inhibition).
For IC50 value determination, the sample slope in the presence of the test compound after subtraction of the low controls (S(compound)−S(‘LOW’)) are used.
An IC50 value is derived from the compound slopes at different dosages after subtraction of the low controls (S(compound)−S(‘LOW’)) by non-linear regression curve fitting (equation y=(A+((B−A)/(1+((C/x)^D))))).

T1 sequence (O00763 129-2458 limits assumed): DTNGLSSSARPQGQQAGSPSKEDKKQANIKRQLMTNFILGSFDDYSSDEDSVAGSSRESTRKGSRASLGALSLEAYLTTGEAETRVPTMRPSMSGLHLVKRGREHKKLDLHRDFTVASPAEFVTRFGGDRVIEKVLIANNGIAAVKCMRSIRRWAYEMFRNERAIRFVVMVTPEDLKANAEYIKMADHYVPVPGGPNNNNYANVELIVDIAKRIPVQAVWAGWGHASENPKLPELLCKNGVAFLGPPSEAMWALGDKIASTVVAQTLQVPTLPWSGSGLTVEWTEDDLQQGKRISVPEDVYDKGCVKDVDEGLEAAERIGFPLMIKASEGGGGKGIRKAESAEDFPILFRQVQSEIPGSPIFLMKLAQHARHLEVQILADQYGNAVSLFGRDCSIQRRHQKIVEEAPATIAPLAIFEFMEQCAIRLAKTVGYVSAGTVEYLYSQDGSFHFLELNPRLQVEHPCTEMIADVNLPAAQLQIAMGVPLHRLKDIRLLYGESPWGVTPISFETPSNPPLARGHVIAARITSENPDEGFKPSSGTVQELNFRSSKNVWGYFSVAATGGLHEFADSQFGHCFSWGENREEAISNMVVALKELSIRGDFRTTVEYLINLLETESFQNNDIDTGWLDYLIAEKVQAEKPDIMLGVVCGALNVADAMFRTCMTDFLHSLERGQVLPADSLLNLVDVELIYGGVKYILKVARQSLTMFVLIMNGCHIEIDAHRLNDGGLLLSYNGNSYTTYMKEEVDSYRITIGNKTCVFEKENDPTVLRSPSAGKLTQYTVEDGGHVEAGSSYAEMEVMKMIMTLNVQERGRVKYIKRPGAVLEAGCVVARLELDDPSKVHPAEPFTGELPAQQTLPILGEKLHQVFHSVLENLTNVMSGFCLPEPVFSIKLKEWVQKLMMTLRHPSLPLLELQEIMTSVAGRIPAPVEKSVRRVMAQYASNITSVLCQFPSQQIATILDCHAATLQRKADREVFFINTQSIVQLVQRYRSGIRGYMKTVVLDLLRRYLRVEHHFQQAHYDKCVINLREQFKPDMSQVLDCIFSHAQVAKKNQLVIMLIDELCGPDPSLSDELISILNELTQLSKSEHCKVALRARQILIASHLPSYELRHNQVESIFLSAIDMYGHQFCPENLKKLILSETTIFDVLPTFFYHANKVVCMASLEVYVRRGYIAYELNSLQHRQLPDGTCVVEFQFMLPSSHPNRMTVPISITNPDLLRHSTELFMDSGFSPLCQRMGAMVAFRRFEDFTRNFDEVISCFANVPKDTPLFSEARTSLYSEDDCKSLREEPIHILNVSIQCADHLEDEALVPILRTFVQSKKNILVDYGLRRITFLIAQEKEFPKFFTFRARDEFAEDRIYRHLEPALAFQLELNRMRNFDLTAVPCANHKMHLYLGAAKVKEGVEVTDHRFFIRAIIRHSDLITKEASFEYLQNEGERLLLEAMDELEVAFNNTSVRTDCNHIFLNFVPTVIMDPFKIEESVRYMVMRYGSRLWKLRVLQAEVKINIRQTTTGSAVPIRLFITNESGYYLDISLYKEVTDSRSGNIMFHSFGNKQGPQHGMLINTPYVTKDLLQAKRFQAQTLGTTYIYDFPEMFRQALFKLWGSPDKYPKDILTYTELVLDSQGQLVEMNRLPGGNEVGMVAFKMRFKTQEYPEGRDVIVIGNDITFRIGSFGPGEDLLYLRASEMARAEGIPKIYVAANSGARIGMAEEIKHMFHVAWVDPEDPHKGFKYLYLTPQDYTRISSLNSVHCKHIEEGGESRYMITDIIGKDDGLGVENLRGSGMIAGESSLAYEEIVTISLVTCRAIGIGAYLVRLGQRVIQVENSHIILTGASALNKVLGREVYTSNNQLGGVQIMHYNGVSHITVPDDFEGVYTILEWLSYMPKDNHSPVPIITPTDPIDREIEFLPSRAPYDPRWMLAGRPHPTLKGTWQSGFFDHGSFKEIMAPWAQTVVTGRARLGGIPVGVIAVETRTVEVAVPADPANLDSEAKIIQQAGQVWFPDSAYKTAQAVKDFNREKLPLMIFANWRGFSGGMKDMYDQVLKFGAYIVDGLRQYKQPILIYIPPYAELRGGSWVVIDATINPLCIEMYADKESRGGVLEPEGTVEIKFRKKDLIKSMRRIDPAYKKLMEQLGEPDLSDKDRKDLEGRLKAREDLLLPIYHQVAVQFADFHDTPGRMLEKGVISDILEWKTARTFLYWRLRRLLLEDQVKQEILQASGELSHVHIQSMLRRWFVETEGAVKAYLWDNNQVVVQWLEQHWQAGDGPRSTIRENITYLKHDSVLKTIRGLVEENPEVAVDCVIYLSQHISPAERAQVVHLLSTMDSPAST

Row | Structure (SMILES) | IC50 [nM]
1 | CCOc1ccc(OC2CN(c3ccc([C@H](C)NC(=O)C(C)C)cc3)C2)cc1 [Example 1.5] | 120
2 | CCCC(=O)N[C@@H](C)c1ccc(N2CC(Oc3ccc(OCC)cc3)C2)cc1 [Example 1.6] | 280
3 | CCOc1ccc(OC2CN(c3ccc([C@H](C)NC(=O)C4CCC4)cc3)C2)cc1 [Example 1.7] | 170
4 | CCOc1ccc(OC2CN(c3ccc([C@H](C)NC(=O)C4CCCC4)cc3)C2)cc1 [Example 1.8] | 550
5 | CCOc1ccc(OC2CN(c3ccc([C@H](C)NC(=O)C4CC4C)cc3)C2)cc1 (stereo partly shown) [Example 1.9] | 460
6 | CCOc1ccc(OC2CN(c3ccc([C@H](C)NC(=O)C4(O)CC4)cc3)C2)cc1 [Example 1.10] | 3190
7 | CCOc1ccc(OC2CN(c3ccc([C@H](C)NC(=O)C4(C)CC4)cc3)C2)cc1 [Example 1.12] | 230
8 | CCOc1ccc(OC2CN(c3ccc([C@H](C)NC(=O)Cn4ccnc4)cc3)C2)cc1 [Example 1.13] | 480
9 | CCOc1ccc(OC2CN(c3ccc([C@H](C)NC(=O)c4conc4C)cc3)C2)cc1 [Example 1.14] | 70
10 | CCOc1ccc(OC2CN(c3ccc([C@H](C)NC(=O)CC4CC4)cc3)C2)cc1 [Example 1.15] | 2560
11 | CCOc1ccc(OC2CN(c3ccc([C@H](C)NC(=O)C(C)(C)F)cc3)C2)cc1 [Example 1.17] | 280
12 | CCOc1ccc(OC2CN(c3ccc([C@H](C)NC(=O)C4(C#N)CC4)cc3)C2)cc1 [Example 1.18] | 340
13 | CCOc1ccc(OC2CN(c3ccc([C@H](C)NC(=O)c4cocn4)cc3)C2)cc1 [Example 1.20] | 330
14 | CCOc1ccc(OC2CN(c3ccc([C@H](C)NC(=O)C4(C)COC4)cc3)C2)cc1 [Example 1.23] | 1470
15 | CCOc1ccc(OC2CN(c3ccc([C@H](C)NC(=O)C4CC(F)C4)cc3)C2)cc1 (stereo partly shown) [Example 1.24] | 220
16 | CCOc1ccc(OC2CN(c3ccc([C@H](C)NC(=O)CO)cc3)C2)cc1 [Example 1.28] | 1010
17 | CCOc1ccc(OC2CN(c3ccc([C@H](C)NC(=O)c4sc(NC(C)=O)nc4C)cc3)C2)cc1 [Example 1.32] | 50
18 | CCOc1ccc(OC2CN(c3ccc([C@H](C)NC(=O)c4cn(C)cn4)cc3)C2)cc1 [Example 1.33] | 2520

Other lines, results leading:

Row | IC50 [nM] | Structure (SMILES)
19 | 2590 | CCOc1ccc(OC2CN(c3ccc([C@H](C)NC(=O)C4(C)CCC4)cc3)C2)cc1 [Example 1.1, (S)-1-Methyl-cyclobutanecarboxylic acid (1-{4-[3-(4-ethoxy-phenoxy)-azetidin-1-yl]-phenyl}-ethyl)-amide]
20 | 150 | CCOc1ccc(OC2CN(c3ccc([C@H](C)NC(=O)CC)cc3)C2)cc1 [Example 1.2]
21 | 1040 | CCOc1ccc(OC2CN(c3ccc([C@H](C)NC(=O)COC)cc3)C2)cc1 [Example 1.3]
22 | 210 | CCOc1ccc(OC2CN(c3ccc([C@H](C)NC(=O)c4cn[nH]c4)cc3)C2)cc1 [Example 1.11]
23 | 590 | CCOc1ccc(OC2CN(c3ccc([C@H](C)NC(=O)C4CC(OC)C4)cc3)C2)cc1 (stereo partly shown) [Example 1.19]
24 | 480 | CCOc1ccc(OC2CN(c3ccc([C@H](C)NC(=O)c4cnn(C)c4)cc3)C2)cc1 [Example 1.21]
25 | 450 | CCOc1ccc(OC2CN(c3ccc([C@H](C)NC(=O)Cc4cncnc4)cc3)C2)cc1 [Example 1.22]
26 | 1230 | CCOc1ccc(OC2CN(c3ccc([C@H](C)NC(=O)c4ccncc4)cc3)C2)cc1 [Example 1.26]
27 | 1950 | CCOc1ccc(OC2CN(c3ccc([C@H](C)NC(=O)c4cccnc4)cc3)C2)cc1 [Example 1.27]
28 | 1160 | CCOc1ccc(OC2CN(c3ccc([C@H](C)NC(=O)c4c[nH]cn4)cc3)C2)cc1 [Example 1.29]
29 | 740 | CCOc1ccc(OC2CN(c3ccc([C@H](C)NC(=O)c4c(C)noc4N)cc3)C2)cc1 [Example 1.30]
30 | 1750 | CCOc1ccc(OC2CN(c3ccc([C@H](C)NC(=O)c4cc(C)nn4C)cc3)C2)cc1 [Example 1.31]

Same assay, conditions: IC50, ACC2 assay; human ACC2 construct lacking 128 N-terminal amino acids; 25° C., 340 nm, 15 minutes

Row | Structure (SMILES) | IC50 [nM]
31 | CCOc1ccc(OC2CN(c3ccc([C@H](C)NC(=O)CF)cc3)C2)cc1 [Example 1.16] | 110
